Test results from ChEMBL document CHEMBL2440076, “New triarylpyrazoles as broad-spectrum anticancer agents: design, synthesis, and biological evaluation” (Eur J Med Chem, 2013).

Key:
Type in all cases: functional
[1] = Growth inhibition of human HCC2998 cells assessed as cell growth at 5X10'-9 M after 48 hrs by sulforhodamine B assay; details: HCC 2998, 48 h, read-out: Activity
[2] = test system: LOX IMVI; assay: Growth inhibition of human LOXIMVI cells assessed as cell growth at 5X10'-5 M after 48 hrs by sulforhodamine B assay; details: read-out: Activity
[3] = test system: HT-29; assay: Growth inhibition of human HT-29 cells assessed as cell growth at 5X10'-5 M after 48 hrs by sulforhodamine B assay; details: HT-29, 48 h, read-out: Activity
[4] = test system: HCT-15; assay: Growth inhibition of human HCT15 cells assessed as cell growth at 5X10'-5 M after 48 hrs by sulforhodamine B assay; details: HCT-15, 48 h, read-out: Activity
[5] = test system: NCI-H322M; assay: Growth inhibition of human NCI-H322M cells assessed as cell growth at 5X10'-5 M after 48 hrs by sulforhodamine B assay; details: read-out: Activity
[6] = test system: HOP-92; assay: Growth inhibition of human HOP92 cells assessed as cell growth at 5X10'-5 M after 48 hrs by sulforhodamine B assay; details: HOP-92, 48 h, read-out: Activity
[7] = test system: RPMI-8226; assay: Growth inhibition of human RPMI8226 cells assessed as cell growth at 5X10'-5 M after 48 hrs by sulforhodamine B assay; details: RPMI-8226, 48 h, read-out: Activity
[8] = test system: TK-10; assay: Growth inhibition of human TK10 cells assessed as cell growth at 5X10'-6 M after 48 hrs by sulforhodamine B assay; details: TK-10, 48 h, read-out: Activity
[9] = test system: ACHN; assay: Growth inhibition of human ACHN cells assessed as cell growth at 5X10'-6 M after 48 hrs by sulforhodamine B assay; details: read-out: Activity
[10] = test system: OVCAR-5; assay: Growth inhibition of human OVCAR5 cells assessed as cell growth at 5X10'-6 M after 48 hrs by sulforhodamine B assay; details: OVCAR-5, 48 h, read-out: Activity
[11] = test system: OVCAR-3; assay: Growth inhibition of human OVCAR3 cells assessed as cell growth at 5X10'-6 M after 48 hrs by sulforhodamine B assay; details: OVCAR-3, 48 h, read-out: Activity
[12] = test system: NCI-H460; assay: Growth inhibition of human NCI-H460 cells assessed as cell growth at 5X10'-9 M after 48 hrs by sulforhodamine B assay; details: NCI-H460, 48 h, read-out: Activity
[13] = test system: HOP-92; assay: Growth inhibition of human HOP92 cells assessed as cell growth at 5X10'-9 M after 48 hrs by sulforhodamine B assay; details: HOP-92, 48 h, read-out: Activity
[14] = test system: SF-268; assay: Growth inhibition of human SF268 cells assessed as cell growth at 5X10'-6 M after 48 hrs by sulforhodamine B assay; details: SF-268, 48 h, read-out: Activity
[15] = test system: HCT-116; assay: Growth inhibition of human HCT116 cells assessed as cell growth at 5X10'-6 M after 48 hrs by sulforhodamine B assay; details: HCT-116, 48 h, read-out: Activity
[16] = test system: DU-145; assay: Growth inhibition of human DU145 cells assessed as cell growth at 5X10'-7 M after 48 hrs by sulforhodamine B assay; details: DU-145, 48 h, read-out: Activity
[17] = test system: NCI-H322M; assay: Growth inhibition of human NCI-H322M cells assessed as cell growth at 5X10'-7 M after 48 hrs by sulforhodamine B assay; details: read-out: Activity
[18] = test system: RPMI-8226; assay: Growth inhibition of human RPMI8226 cells assessed as cell growth at 5X10'-7 M after 48 hrs by sulforhodamine B assay; details: RPMI-8226, 48 h, read-out: Activity
[19] = test system: UO-31; assay: Growth inhibition of human UO31 cells assessed as cell growth at 5X10'-8 M after 48 hrs by sulforhodamine B assay; details: UO-31, 48 h, read-out: Activity
[20] = test system: SN12C; assay: Growth inhibition of human SN12C cells assessed as cell growth at 5X10'-8 M after 48 hrs by sulforhodamine B assay; details: read-out: Activity
[21] = test system: UACC-257; assay: Growth inhibition of human UACC257 cells assessed as cell growth at 5X10'-8 M after 48 hrs by sulforhodamine B assay; details: UACC-257, 48 h, read-out: Activity
[22] = test system: SK-MEL-5; assay: Growth inhibition of human SK-MEL-5 cells assessed as cell growth at 5X10'-8 M after 48 hrs by sulforhodamine B assay; details: SK-MEL-5, 48 h, read-out: Activity
[23] = test system: LOX IMVI; assay: Growth inhibition of human LOXIMVI cells assessed as cell growth at 5X10'-8 M after 48 hrs by sulforhodamine B assay; details: read-out: Activity
[24] = test system: SNB-19; assay: Growth inhibition of human SNB19 cells assessed as cell growth at 5X10'-8 M after 48 hrs by sulforhodamine B assay; details: SNB-19, 48 h, read-out: Activity
[25] = test system: SF-268; assay: Growth inhibition of human SF268 cells assessed as cell growth at 5X10'-8 M after 48 hrs by sulforhodamine B assay; details: SF-268, 48 h, read-out: Activity
[26] = test system: SF-295; assay: Growth inhibition of human SF295 cells assessed as cell growth at 5X10'-8 M after 48 hrs by sulforhodamine B assay; details: SF-295, 48 h, read-out: Activity
[27] = test system: T47D; assay: Growth inhibition of human T47D cells assessed as cell growth at 5X10'-5 M after 48 hrs by sulforhodamine B assay; details: read-out: Activity
[28] = test system: CAKI-1; assay: Growth inhibition of human CAKI-1 cells assessed as cell growth at 5X10'-5 M after 48 hrs by sulforhodamine B assay; details: CAKI-1, 48 h, read-out: Activity
[29] = test system: 786-0; assay: Growth inhibition of human 786-0 cells assessed as cell growth at 5X10'-5 M after 48 hrs by sulforhodamine B assay; details: 786-0, 48 h, read-out: Activity
[30] = test system: HOP-62; assay: Growth inhibition of human HOP62 cells assessed as cell growth at 5X10'-8 M after 48 hrs by sulforhodamine B assay; details: HOP-62, 48 h, read-out: Activity
[31] = test system: MDA-MB-468; assay: Growth inhibition of human MDA-MB-468 cells assessed as cell growth at 5X10'-9 M after 48 hrs by sulforhodamine B assay; details: MDA-MB-468, 48 h, read-out: Activity
[32] = test system: SN12C; assay: Growth inhibition of human SN12C cells assessed as cell growth at 5X10'-9 M after 48 hrs by sulforhodamine B assay; details: read-out: Activity
[33] = test system: OVCAR-8; assay: Growth inhibition of human OVCAR8 cells assessed as cell growth at 5X10'-9 M after 48 hrs by sulforhodamine B assay; details: OVCAR-8, 48 h, read-out: Activity
[34] = test system: IGROV-1; assay: Growth inhibition of human IGROV1 cells assessed as cell growth at 5X10'-9 M after 48 hrs by sulforhodamine B assay; details: IGROV-1, 48 h, read-out: Activity
[35] = test system: SK-MEL-28; assay: Growth inhibition of human SK-MEL-28 cells assessed as cell growth at 5X10'-9 M after 48 hrs by sulforhodamine B assay; details: SK-MEL-28, 48 h, read-out: Activity
[36] = test system: Malme-3M; assay: Growth inhibition of human MALME-3M cells assessed as cell growth at 5X10'-9 M after 48 hrs by sulforhodamine B assay; details: read-out: Activity

SMILES	growth at 0.005 µM [1] [%]	growth at 50 µM [2] [%]	growth at 50 µM [3] [%]	growth at 50 µM [4] [%]	growth at 50 µM [5] [%]	growth at 50 µM [6] [%]	growth at 50 µM [7] [%]	growth at 5 µM [8] [%]	growth at 5 µM [9] [%]	growth at 5 µM [10] [%]	growth at 5 µM [11] [%]	growth at 0.005 µM [12] [%]	growth at 0.005 µM [13] [%]	growth at 5 µM [14] [%]	growth at 5 µM [15] [%]	growth at 0.5 µM [16] [%]	growth at 0.5 µM [17] [%]	growth at 0.5 µM [18] [%]	growth at 0.05 µM [19] [%]	growth at 0.05 µM [20] [%]	further results
COc1cc(-c2nn(-c3cccc(NC(=O)Nc4cc(C(F)(F)F)cc(C(F)(F)F)c4)c3)cc2-c2ccncc2)ccc1Cl	102	-86	-77	-75	-58	-72	3	-34	2	-36	-69	99	77	-40	-52	86	83	38	94	91	growth at 0.05 µM [21]: 98%; growth at 0.05 µM [22]: 95%; growth at 0.05 µM [23]: 105%; growth at 0.05 µM [24]: 91%; growth at 0.05 µM [25]: 105%; growth at 0.05 µM [26]: 94%; growth at 50 µM [27]: 5%; growth at 50 µM [28]: -50%; growth at 50 µM [29]: -63%; growth at 0.05 µM [30]: 95%; growth at 0.005 µM [31]: 90%; growth at 0.005 µM [32]: 96%; growth at 0.005 µM [33]: 101%; growth at 0.005 µM [34]: 109%; growth at 0.005 µM [35]: 101%; growth at 0.005 µM [36]: 90%
O=C(Nc1cccc(-n2cc(-c3ccncc3)c(-c3ccc(Cl)c(O)c3)n2)c1)Nc1cc(C(F)(F)F)cc(C(F)(F)F)c1	99	-95	-90	-74	-75	-89	5	-13	2	-54	-70	101	83	-27	-87	80	84	49	89	96	growth at 0.05 µM [21]: 89%; growth at 0.05 µM [22]: 92%; growth at 0.05 µM [23]: 100%; growth at 0.05 µM [24]: 99%; growth at 0.05 µM [25]: 103%; growth at 0.05 µM [26]: 90%; growth at 50 µM [27]: -25%; growth at 50 µM [28]: -67%; growth at 50 µM [29]: -71%; growth at 0.05 µM [30]: 97%; growth at 0.005 µM [31]: 94%; growth at 0.005 µM [32]: 96%; growth at 0.005 µM [33]: 101%; growth at 0.005 µM [34]: 108%; growth at 0.005 µM [35]: 101%; growth at 0.005 µM [36]: 107%
COc1cc(-c2nn(-c3cccc(NC(=O)Nc4ccc(Cl)c(Cl)c4)c3)cc2-c2ccncc2)ccc1Cl	101	-45	-19	5	6	-39	-11	11	3	27	-34	102	75	8	6	90	89	45	88	94	growth at 0.05 µM [21]: 88%; growth at 0.05 µM [22]: 92%; growth at 0.05 µM [23]: 101%; growth at 0.05 µM [24]: 95%; growth at 0.05 µM [25]: 102%; growth at 0.05 µM [26]: 88%; growth at 50 µM [27]: 9%; growth at 50 µM [28]: -13%; growth at 50 µM [29]: -20%; growth at 0.05 µM [30]: 97%; growth at 0.005 µM [31]: 94%; growth at 0.005 µM [32]: 94%; growth at 0.005 µM [33]: 99%; growth at 0.005 µM [34]: 97%; growth at 0.005 µM [35]: 106%; growth at 0.005 µM [36]: 103%
